{"source": "ChEMBL document CHEMBL1201862", "about": "“PubChem BioAssay data set” (2004)", "key": {"[1]": {"assay": "growth suppression of PTEN-null colon cells, dose response, cell-based, HCT116 PTEN knockout (AID 1047);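 further: cells exposed to compound for 60 hours before readout; potency for loss of cell viability measured by luminescence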", "assay_type": "functional"}, "[2]": {"assay": "growth suppression of beta-catenin-knockout colon cells, dose response, cell-based, HCT116, human colon tumor (AID 1045);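 further: cells exposed to compound for 60 hours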", "assay_type": "functional"}, "Estrogen receptor beta": {"biological_target": "Estrogen receptor beta (Homo sapiens, UniProt Q92731)", "sequence (Q92731 whole entry)": "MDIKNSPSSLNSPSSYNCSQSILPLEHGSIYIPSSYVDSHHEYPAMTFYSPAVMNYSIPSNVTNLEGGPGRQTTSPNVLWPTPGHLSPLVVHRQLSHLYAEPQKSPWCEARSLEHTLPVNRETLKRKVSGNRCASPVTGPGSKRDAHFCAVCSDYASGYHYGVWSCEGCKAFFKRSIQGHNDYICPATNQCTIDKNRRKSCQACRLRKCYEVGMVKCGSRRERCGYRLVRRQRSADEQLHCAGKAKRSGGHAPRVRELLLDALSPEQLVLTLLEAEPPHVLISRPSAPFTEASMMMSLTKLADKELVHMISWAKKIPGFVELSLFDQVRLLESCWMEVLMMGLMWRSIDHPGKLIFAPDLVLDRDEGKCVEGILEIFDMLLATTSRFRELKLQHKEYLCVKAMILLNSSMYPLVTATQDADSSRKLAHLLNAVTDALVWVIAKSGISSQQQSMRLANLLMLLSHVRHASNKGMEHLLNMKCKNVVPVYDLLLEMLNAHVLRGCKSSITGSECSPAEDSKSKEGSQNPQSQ"}, "[3]": {"assay": "cytotoxicity in KRAS-transformed pancreatic duct cells, primary screen, cell-based, fluorescence, HTS (AID 431);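 further: cell line used: HPDE-C7K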", "assay_type": "functional", "conditions": "Homo sapiens"}, "[4]": {"assay": "cytotoxicity in HPDE-C7 cells, cell-based, fluorescence, HTS (AID 430)", "assay_type": "functional", "conditions": "Homo sapiens"}, "[5]": {"biological_target": "DNA dC->dU-editing enzyme APOBEC-3G (Homo sapiens, UniProt Q9HC16)", "sequence (Q9HC16 whole entry)": "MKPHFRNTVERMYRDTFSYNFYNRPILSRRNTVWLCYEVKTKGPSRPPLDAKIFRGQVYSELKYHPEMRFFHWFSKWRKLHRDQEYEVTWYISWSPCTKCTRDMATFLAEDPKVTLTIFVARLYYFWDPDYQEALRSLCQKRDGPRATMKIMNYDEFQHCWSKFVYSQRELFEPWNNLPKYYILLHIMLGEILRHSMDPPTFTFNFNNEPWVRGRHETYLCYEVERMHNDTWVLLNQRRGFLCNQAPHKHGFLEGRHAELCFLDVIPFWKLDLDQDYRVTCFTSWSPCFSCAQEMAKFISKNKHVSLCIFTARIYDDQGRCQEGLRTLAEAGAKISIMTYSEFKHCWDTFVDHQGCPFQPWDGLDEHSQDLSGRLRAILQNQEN", "assay": "Dose Response confirmation of small molecule APOBEC3G DNA Deaminase Inhibitors via a fluorescence-based single-stranded DNA deaminase assay. [Related pubchem assays (depositor defined):AID493012, AID493028]", "assay_type": "functional"}, "[6]": {"biological_target": "DNA dC->dU-editing enzyme APOBEC-3A (Homo sapiens, UniProt P31941)", "sequence (P31941 whole entry)": "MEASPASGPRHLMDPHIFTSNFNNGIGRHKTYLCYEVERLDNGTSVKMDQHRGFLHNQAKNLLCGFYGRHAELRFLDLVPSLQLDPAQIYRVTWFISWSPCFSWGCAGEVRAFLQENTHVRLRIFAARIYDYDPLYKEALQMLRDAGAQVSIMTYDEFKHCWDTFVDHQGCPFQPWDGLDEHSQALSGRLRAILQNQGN", "assay": "APOBEC3A DNA deaminase inhibitors, dose response, biochemical (AID 504722)", "assay_type": "functional"}, "Coagulation factor XII": {"biological_target": "T1, Coagulation factor XII (Homo sapiens, UniProt P00748)", "T1 sequence (P00748 whole entry)": "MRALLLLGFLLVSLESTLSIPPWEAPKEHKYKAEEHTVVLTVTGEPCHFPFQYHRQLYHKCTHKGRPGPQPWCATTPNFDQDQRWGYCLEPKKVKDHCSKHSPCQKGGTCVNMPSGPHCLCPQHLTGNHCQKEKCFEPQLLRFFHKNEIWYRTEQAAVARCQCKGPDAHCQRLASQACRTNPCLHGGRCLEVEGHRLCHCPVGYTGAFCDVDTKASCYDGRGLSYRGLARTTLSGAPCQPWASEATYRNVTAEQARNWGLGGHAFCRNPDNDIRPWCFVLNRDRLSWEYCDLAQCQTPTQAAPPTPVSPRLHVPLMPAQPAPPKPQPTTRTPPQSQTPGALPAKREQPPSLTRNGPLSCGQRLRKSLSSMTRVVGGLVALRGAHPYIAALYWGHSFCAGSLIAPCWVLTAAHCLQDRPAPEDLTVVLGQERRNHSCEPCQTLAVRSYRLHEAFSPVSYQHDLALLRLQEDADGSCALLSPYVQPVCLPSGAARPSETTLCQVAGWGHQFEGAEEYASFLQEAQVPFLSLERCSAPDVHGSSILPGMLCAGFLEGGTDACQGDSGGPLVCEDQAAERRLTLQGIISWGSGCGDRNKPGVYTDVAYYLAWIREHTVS", "assay_type": "functional"}, "Cytochrome P450 2C19": {"biological_target": "Cytochrome P450 2C19 (Homo sapiens, UniProt P33261)", "sequence (P33261 whole entry)": "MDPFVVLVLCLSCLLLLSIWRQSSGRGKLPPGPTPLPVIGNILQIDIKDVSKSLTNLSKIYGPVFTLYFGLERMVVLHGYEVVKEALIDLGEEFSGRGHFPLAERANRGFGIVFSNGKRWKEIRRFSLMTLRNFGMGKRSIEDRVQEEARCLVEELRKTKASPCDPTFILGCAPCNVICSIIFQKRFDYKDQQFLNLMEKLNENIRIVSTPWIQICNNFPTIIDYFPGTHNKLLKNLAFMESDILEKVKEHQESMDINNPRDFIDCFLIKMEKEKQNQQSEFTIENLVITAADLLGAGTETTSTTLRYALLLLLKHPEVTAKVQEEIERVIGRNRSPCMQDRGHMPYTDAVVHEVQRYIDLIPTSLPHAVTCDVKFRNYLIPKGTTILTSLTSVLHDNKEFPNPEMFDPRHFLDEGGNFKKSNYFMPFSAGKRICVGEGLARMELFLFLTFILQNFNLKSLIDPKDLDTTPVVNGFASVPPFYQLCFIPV", "assay": "Cytochrome panel assay with activity outcomes. Panel member name: p450-cyp2c19 Compounds with AC50 equal or less than 10 uM are considered active", "assay_type": "functional", "conditions": "read-out: AC50"}, "Cytochrome P450 2D6": {"biological_target": "Cytochrome P450 2D6 (Homo sapiens, UniProt P10635)", "sequence (P10635 whole entry)": "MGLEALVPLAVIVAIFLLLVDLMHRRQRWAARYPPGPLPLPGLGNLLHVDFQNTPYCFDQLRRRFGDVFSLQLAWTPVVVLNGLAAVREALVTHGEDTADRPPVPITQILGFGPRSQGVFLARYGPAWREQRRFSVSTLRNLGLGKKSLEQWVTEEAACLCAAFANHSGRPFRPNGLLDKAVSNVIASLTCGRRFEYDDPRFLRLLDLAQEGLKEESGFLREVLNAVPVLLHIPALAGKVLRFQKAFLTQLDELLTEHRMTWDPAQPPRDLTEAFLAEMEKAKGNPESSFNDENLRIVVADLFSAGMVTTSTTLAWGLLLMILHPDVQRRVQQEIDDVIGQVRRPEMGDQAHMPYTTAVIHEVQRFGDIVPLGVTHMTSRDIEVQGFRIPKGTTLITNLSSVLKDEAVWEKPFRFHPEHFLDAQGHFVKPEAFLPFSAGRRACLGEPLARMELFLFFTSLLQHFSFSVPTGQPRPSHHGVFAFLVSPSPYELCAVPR"}}, "note": "Calls of active or inactive are those of the source."}
{"compound": "Cc1cccc(-n2c(O)nc3c(C(N)=O)nc(-c4ccccc4Cl)nc32)c1", "values": [{"measurement": "EC50", "setting": "[1]", "result": "10.5 µM (active)"}, {"measurement": "EC50", "setting": "[2]", "result": "11.2 µM (active)"}]}
{"compound": "Cc1nn2c(-c3cccc(NC(=O)CSc4nc5ccccc5o4)c3)nnc2c2ccccc12", "values": [{"measurement": "IC50", "setting": "Estrogen receptor beta", "result": "> 50 µM (not active)"}, {"measurement": "EC50", "setting": "[3]", "result": "7.73 µM (active)"}, {"measurement": "EC50", "setting": "[4]", "result": "7.91 µM (active)"}]}
{"compound": "S=c1[nH]nc(Cc2cccs2)n1-c1ccccc1", "values": [{"measurement": "IC50", "setting": "[5]", "result": "7.51 µM (active)"}, {"measurement": "IC50", "setting": "[6]", "result": "> 100 µM (inactive)"}]}
{"compound": "COC(=O)c1cccc(NS(=O)(=O)c2ccc(OC)c(OC)c2)c1C", "values": [{"measurement": "IC50", "setting": "Coagulation factor XII", "result": "> 50 µM (inactive)"}]}
{"compound": "Cc1cccc(NC(S)=NC2CC3CCCC(C2)N3Cc2cccs2)c1", "note": "(stereo unspecified)", "values": [{"measurement": "AC50", "setting": "Cytochrome P450 2C19", "result": "28.2 µM (inconclusive)"}, {"measurement": "EC50", "setting": "[1]", "result": "65.3 µM (active)"}, {"measurement": "EC50", "setting": "[2]", "result": "92.3 µM (active)"}, {"measurement": "AC50", "setting": "Cytochrome P450 2D6", "result": "3.98 µM (inconclusive)"}]}
{"compound": "O=C(c1ccc(Cl)c([N+](=O)[O-])c1)N(Cc1ccc(Cl)cc1)C1CCS(=O)(=O)C1", "note": "(stereo unspecified)", "values": [{"measurement": "EC50", "setting": "[1]", "result": "26.8 µM (active)"}, {"measurement": "EC50", "setting": "[2]", "result": "17.9 µM (active)"}]}
{"compound": "O=c1n(Cc2ccc(Cl)cc2)c2sc3c(c2c2ncnn12)CCCC3", "values": [{"measurement": "EC50", "setting": "[3]", "result": "13.1 µM (active)"}, {"measurement": "EC50", "setting": "[4]", "result": "13.3 µM (active)"}]}
